Biological target: Factor D (Homo sapiens, UniProt P00746)
Assay: Factor D esterolytic assay (Z-Lys-SBzl thioester substrate, DTNB, 405 nm)
Format: biochemical
Settings: substrate Z-Lys-SBzl 1.29 mM, 100 mM HEPES, 500 mM NaCl, pH 7.5, 10% DMSO, tested a minimum of three times
Outline: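 Human Factor D hydrolysis of Z-Lys-SBzl (1.29 mM) monitored at 405 nm via DTNB thiol detection for 600 s, 690 nm background subtracted. Buffer 100 mM HEPES, 500 mM NaCl, pH 7.5, 10% DMSO; substrate added immediately or after room-temperature preincubation. IC50 from percent inhibition of rate, at least three tests.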

Sequence of Factor D (P00746 26-253): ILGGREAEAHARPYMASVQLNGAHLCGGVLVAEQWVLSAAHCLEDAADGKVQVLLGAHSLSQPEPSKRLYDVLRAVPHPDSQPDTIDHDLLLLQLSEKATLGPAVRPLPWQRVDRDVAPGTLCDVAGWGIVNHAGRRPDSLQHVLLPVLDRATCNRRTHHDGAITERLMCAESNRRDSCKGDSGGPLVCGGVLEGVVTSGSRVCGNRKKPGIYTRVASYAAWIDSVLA

| SMILES | IC50 [nM] |
| --- | --- |
| Cc1cc(C(F)(F)F)nc2c3c(N)ncnc3n(CC(=O)N3[C@@H]4C[C@@H]4C[C@H]3C(=O)Nc3cccc(Br)n3)c12 [Compound 362f, (1R,3S,5R)-2-(2-(4-amino-8-methyl-6-(trifluoromethyl)-9H-pyrido[2′,3′:4,5]pyrrolo[2,3-d]pyrimidin-9-yl)acetyl)-N-(6-bromopyridin-2-yl)-2-azabicyclo[3.1.0]hexane-3-carboxamide] | < 100 |
| Cc1cc(C(F)(F)F)nc2c3c(N)ncnc3n(CC(=O)N3[C@H](C(=O)Nc4cccc(Br)n4)C[C@@]4(C)C[C@@H]34)c12 [Compound 363a, (1R,3S,5R)-2-(2-(4-amino-8-methyl-6-(trifluoromethyl)-9H-pyrido[2′,3′:4,5]pyrrolo[2,3-d]pyrimidin-9-yl)acetyl)-N-(6-bromopyridin-2-yl)-5-methyl-2-azabicyclo[3.1.0]hexane-3-carboxamide] | < 100 |
| Cc1ncc(NC(=O)[C@@H]2C[C@@]3(C)C[C@H]3N2C(=O)Cn2c3ncnc(N)c3c3cc(C(F)(F)F)cc(C)c32)nc1Br [Compound 364d, (1R,3S,5R)-2-(2-(4-amino-8-methyl-6-(trifluoromethyl)-9H-pyrimido[4,5-b]indol-9-yl)acetyl)-N-(6-bromo-5-methylpyrazin-2-yl)-5-methyl-2-azabicyclo[3.1.0]hexane-3-carboxamide] | < 100 |
| Cc1ncc(NC(=O)[C@@H]2C[C@@]3(C)C[C@H]3N2C(=O)Cn2c3ncnc(N)c3c3cc(C(F)(F)F)cc(C)c32)nc1Cl [Compound 364e, (1R,3S,5R)-2-(2-(4-amino-8-methyl-6-(trifluoromethyl)-9H-pyrimido[4,5-b]indol-9-yl)acetyl)-N-(6-chloro-5-methylpyrazin-2-yl)-5-methyl-2-azabicyclo[3.1.0]hexane-3-carboxamide] | < 100 |
| Cc1ccc(Cl)nc1NC(=O)[C@@H]1C[C@@H](F)CN1C(=O)Cn1c2ncnc(N)c2c2cc(C(F)(F)F)cc(C)c21 [Compound 365c, (2S,4R)-1-(2-(4-amino-8-methyl-6-(trifluoromethyl)-9H-pyrimido[4,5-b]indol-9-yl)acetyl)-N-(6-chloro-3-methylpyridin-2-yl)-4-fluoropyrrolidine-2-carboxamide] | < 100 |
| Cc1cc(F)c(Br)nc1NC(=O)[C@@H]1C[C@@H](F)CN1C(=O)Cn1c2ncnc(N)c2c2cc(C(F)(F)F)cc(C)c21 [Compound 366c, (2S,4R)-1-(2-(4-amino-8-methyl-6-(trifluoromethyl)-9H-pyrimido[4,5-b]indol-9-yl)acetyl)-N-(6-bromo-5-fluoro-3-methylpyridin-2-yl)-4-fluoropyrrolidine-2-carboxamide] | < 100 |
| COc1cc2c(cc1C(F)(F)F)c1c(N)ncnc1n2CC(=O)N1[C@@H]2C[C@@H]2C[C@H]1C(=O)Nc1cccc(Br)n1 [Compound 367g, (1R,3S,5R)-2-(2-(4-amino-7-methoxy-6-(trifluoromethyl)-9H-pyrimido[4,5-b]indol-9-yl)acetyl)-N-(6-bromopyridin-2-yl)-2-azabicyclo[3.1.0]hexane-3-carboxamide] | < 100 |
| COc1cc2c(cc1C(F)(F)F)c1c(N)ncnc1n2CC(=O)N1[C@H](C(=O)Nc2cccc(Br)n2)C[C@@]2(C)C[C@@H]12 [Compound 368a, (1R,3S,5R)-2-(2-(4-amino-7-methoxy-6-(trifluoromethyl)-9H-pyrimido[4,5-b]indol-9-yl)acetyl)-N-(6-bromopyridin-2-yl)-5-methyl-2-azabicyclo[3.1.0]hexane-3-carboxamide] | < 100 |
| Nc1ncnc2c1c1cc(C(F)(F)F)cc(F)c1n2CC(=O)N1[C@@H]2C[C@@H]2C[C@H]1C(=O)Nc1cccc(Br)n1 [Compound 369g, (1R,3S,5R)-2-(2-(4-amino-8-fluoro-6-(trifluoromethyl)-9H-pyrimido[4,5-b]indol-9-yl)acetyl)-N-(6-bromopyridin-2-yl)-2-azabicyclo[3.1.0]hexane-3-carboxamide] | < 100 |
